Earlier results as cited in US20250179582A1, “METHODS FOR TREATING CANCER PATIENTS WITH HOMOLOGOUS RECOMBINATION DEFICIENCY BASED ON TEMPLATED INSERTIONS” (Memorial Sloan-Kettering Cancer Center, priority 2022, published 2025).
Where two headings read alike, the source gives them in different places.

Tested on: relapsed high-grade serous ovarian/endometrioid/primary peritoneal/or fallopian carcinoma
Details: rucaparib versus placebo

CNCc1ccc(-c2[nH]c3cc(F)cc4c3c2CCNC4=O)cc1 [rucaparib]
progression-free survival hazard ratio (HR) (germline or somatic mutated BRCA1/2 cohort, patients with at least a partial response to platinum therapy): 0.23
progression-free survival hazard ratio (HR) (patients with high genomic LOH): 0.44
progression-free survival hazard ratio (HR) (patients with low genomic LOH): 0.58
